{"source": "patent US8088822B2", "about": "“Use of fenretinide or bioactive derivatives thereof and pharmaceutical compositions comprising the same” (priority 2008, dated 2012)", "key": {"[1]": {"test_system": "HL60 cells", "test": "Intracellular ROS accumulation, DCFH-DA staining, HL60 cells", "type": "cell-based", "settings": "3 h; for increase of ROS level: proliferating HL60 cells; for fold change of ROS: quiescent HL60 cells", "protocol": "HL60 cells were cultured in RPMI 1640 supplemented (i) with or (ii) without 10% fetal bovine serum to obtain proliferating and quiescent leukemia cells respectively. Serum-deprived quiescent leukemic cells and proliferating leukemic cells were then cultured in media containing 0.5% FBS, and treated with 1 μM and 2.5 μM fenretinide, and also with chemotherapeutics as controls, 20 μM idarubicin (IDA) and 5 μM cytarabine (Ara-C).\nThe intracellular generation of reactive oxygen species (ROS) was measured using of the oxidation-sensitive fluorescent dye 2,7-dichlorofluorescin diacetate (DCFH-DA) (Molecular Probes). After 3 h exposure of fenretinide, 2×10^5 cells were harvested and washed once with PBS, then loaded with 1 ml PBS containing 10 μM of DCFH-DA. The cells were then incubated at 37° C. for 30 min and the fluorescence intensity was measured at 530 nm.\nTo examine the effects of fenretinide on proliferating and quiescent leukemia cells, HL60 cells were chosen as serum deprived quiescent leukemic cell model obtained when incubated in RPMI 1640 without serum for 48 h, with G0/G1 phase cells (being in quiescent state) accounting up to 59.9%. Serum-deprived quiescent leukemic cells and proliferating leukemic cells were then cultured in media containing 0.5% FBS, and treated with 1 μM and 2.5 μM fenretinide, and also with chemotherapeutics as controls, 20 μM idarubicin (IDA) and 5 μM cytarabine (Ara-C). […] Fenretinide induces intracellular production of ROS, lowers mitochondrial transmembrane potential (MTP), and eventually leads to apoptosis in a variety of malignancies. We measured MTP induced by fenretinide in proliferating and quiescent HL60 cells, as examined through rhodamine 123 and propidium iodide staining and followed by flow cytometry analysis. […] We further measured intracellular ROS abundance induced by fenretinide. […] After incubation with 1 μM and 2.5 μM fenretinide for 3 h, the ROS level of proliferating cells increased by 1.77 and 2.6 fold, respectively."}, "[2]": {"test_system": "CML mononuclear cells", "test": "Apoptosis of CML mononuclear cells", "type": "cell-based, human", "settings": "CML patient specimens", "source_text": "Fresh bone marrow (BM) cells were obtained from 38 patients with CML and 5 non-leukemic donors, 25 AML, 17 ALL, and 8 normal specimens with informed consent according to the Declaration of Helsinki. Approval was obtained from Institutional Review Board at the School of Medicine in Shanghai Jiao Tong University. BM mononuclear cells were isolated by Ficoll density gradient centrifugation (Shanghai Second Reagent Factory, Shanghai, China). CD34^+ Cell were selected using EasySep® Human CD34 Positive Selection kit (Stem Cell Technologies, Vancouver, BC, Canada) according to the manufacturer's instructions. The purity of CD34 cells ranged between 92 and 98% in all samples detennined by flow cytometry. The CD34^+ cells were cultured in a serum-free medium (StemPro 34; Gibco BRL, Gaithersburg, Md.) supplemented with growth factors (PeproTech, London, United Kingdom) (20). The growth factors consisted of GM-CSF (200 pg/mL), G-CSF (1 ng/mL); SCF (200 pg/mL); LIF (50 pg/mL), MIP-1α (200 pg/mL) and IL-6 (1 ng/mL).\nPrimitive AML and CML subpopulations (CD34^+ cells) were identified using CD34-PE in combination with CD38-APC, and followed by double-labeling with 7AAD and Annexin V antibodies for apoptosis assessment. […] Subsequently, the samples were incubated at room temperature for 15 minutes and analyzed by flow cytometry. […]"}, "[3]": {"test_system": "oxidative and ER stress genes", "test": "Real-time quantitative RT-PCR of oxidative and ER stress genes in CML CD34+ cells", "type": "cell-based, human", "settings": "fenretinide-treated CML CD34+ cells", "source_text": "Real-time quantitative RT-PCR was preformed on ABI7900 thermocycler detection system using SYBR Green I (Applied Biosystems, Foster City, Calif.).\nFenretinide preferentially targets more primitive leukemia stem and progenitor cells (Example 3 and Example 4), and mechanisms are involved in ROS-dependent apoptosis in a panel of leukemia cell lines. Additionally, the process of fenretinide-induced apoptosis is modulated by a large number of oxidative and ER stress genes (Example 5 and Example 6). It is of significant value to further evaluate whether fenretinide exerts similar mechanism on primitive leukemia stem and progenitor cells. Thus, we isolated CD34^+ cells from CML patients, which were subjected to real-time quantitative RT-PCR for oxidative and ER stress genes identified based on microarray analysis of fenretinide-treated K562 cells."}}, "data": [{"smiles": "CC1=C(/C=C/C(C)=C/C=C/C(C)=C/C(=O)Nc2ccc(O)cc2)C(C)(C)CCC1", "note": "[fenretinide, N-(4-hydroxyphenyl)retinamide]", "values": [{"measurement": "increase of ROS level", "setting": "[1]; 1 μM fenretinide", "value": 1.77, "unit": "fold"}, {"measurement": "increase of ROS level", "setting": "[1]; 2.5 μM fenretinide", "value": 2.6, "unit": "fold"}, {"measurement": "fold change of ROS", "setting": "[1]; 1 μM fenretinide", "value": 3.83, "unit": "fold"}, {"measurement": "fold change of ROS", "setting": "[1]; 2.5 μM fenretinide", "value": 4.3, "unit": "fold"}, {"measurement": "apoptosis in mononuclear cells", "setting": "[2]", "value": "little apoptosis"}, {"measurement": "expression of genes involved in oxidative and ER stress", "setting": "[3]", "value": "highly up-regulated"}]}]}
